#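 Following 48 hours of exposure in 96-well plates, responses at five concentrations were used to interpolate endpoints linearly. Definition used: TGI = concentration required for complete inhibition of growth.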
# Columns and labels:
# Assay in all cases: NCI tumour cell line growth inhibition, 48 h
# RXF 393 renal = tested on: RXF 393 renal
# TK-10 renal = tested on: TK-10 renal
# OVCAR-4 ovarian = tested on: OVCAR-4 ovarian
# NCI-H226 lung = tested on: NCI-H226 lung
# HCT-15 colon = tested on: HCT-15 colon
# SR leukemia = tested on: SR leukemia
# PC-3 prostate = tested on: PC-3 prostate
# HCC-2998 colon = tested on: HCC-2998 colon
# U251 CNS = tested on: U251 CNS
# SNB-19 CNS = tested on: SNB-19 CNS
# SF-295 CNS = tested on: SF-295 CNS
# NCI-H460 lung = tested on: NCI-H460 lung
# A498 renal = tested on: A498 renal
# HOP-62 NSCLC = tested on: HOP-62 NSCLC
# HCT-116 colon = tested on: HCT-116 colon
# UACC-257 melanoma = tested on: UACC-257 melanoma
# SF-268 CNS = tested on: SF-268 CNS
# OVCAR-5 ovarian = tested on: OVCAR-5 ovarian
# UACC-62 melanoma = tested on: UACC-62 melanoma
# 786-0 renal = tested on: 786-0 renal
# COLO 205 colon = tested on: COLO 205 colon
# SK-MEL-5 melanoma = tested on: SK-MEL-5 melanoma
# OVCAR-8 ovarian = tested on: OVCAR-8 ovarian
# UO-31 renal = tested on: UO-31 renal
# EKVX NSCLC = tested on: EKVX NSCLC
# CCRF-CEM leukemia = tested on: CCRF-CEM leukemia
# T-47D breast = tested on: T-47D breast
# BT-549 breast = tested on: BT-549 breast
# SF-539 CNS = tested on: SF-539 CNS
# NCI/ADR-RES ovarian = tested on: NCI/ADR-RES ovarian
# LOX IMVI melanoma = tested on: LOX IMVI melanoma
# MALME-3M melanoma = tested on: MALME-3M melanoma
# MCF7 breast = tested on: MCF7 breast
# HL-60(TB) leukemia = tested on: HL-60(TB) leukemia
# OVCAR-3 ovarian = tested on: OVCAR-3 ovarian
# MDA-N = tested on: MDA-N
# MDA-MB-231 breast = tested on: MDA-MB-231 breast
# CAKI-1 renal = tested on: CAKI-1 renal
# NCI-H522 lung = tested on: NCI-H522 lung
# SW-620 colon = tested on: SW-620 colon
# NCI-H23 lung = tested on: NCI-H23 lung
# IGROV1 ovarian = tested on: IGROV1 ovarian
# HT29 colon = tested on: HT29 colon
# A549 NSCLC = tested on: A549 NSCLC
# DU-145 prostate = tested on: DU-145 prostate
# SK-MEL-2 melanoma = tested on: SK-MEL-2 melanoma
# K-562 leukemia = tested on: K-562 leukemia
# SK-MEL-28 melanoma = tested on: SK-MEL-28 melanoma
# HS 578T breast = tested on: HS 578T breast
# M14 melanoma = tested on: M14 melanoma
# KM12 colon = tested on: KM12 colon
# SN12C renal = tested on: SN12C renal
# SK-OV-3 ovarian = tested on: SK-OV-3 ovarian
# SNB-75 CNS = tested on: SNB-75 CNS
# RPMI-8226 leukemia = tested on: RPMI-8226 leukemia
# MOLT-4 leukemia = tested on: MOLT-4 leukemia
# ACHN renal = tested on: ACHN renal
# MDA-MB-435 = tested on: MDA-MB-435
# HOP-92 NSCLC = tested on: HOP-92 NSCLC
compound,measurement,setting,value
COc1cccc(C2SCC(=O)N2c2ccc(-n3c(-c4ccccc4)nc4ccccc4c3=O)cc2)c1OC (stereo not drawn),TGI,RXF 393 renal,> 100 µM
same,TGI,TK-10 renal,> 100 µM
same,TGI,OVCAR-4 ovarian,> 100 µM
same,TGI,NCI-H226 lung,> 100 µM
same,TGI,HCT-15 colon,> 100 µM
same,TGI,SR leukemia,> 100 µM
same,TGI,PC-3 prostate,> 100 µM
same,TGI,HCC-2998 colon,> 100 µM
same,TGI,U251 CNS,> 100 µM
same,TGI,SNB-19 CNS,> 100 µM
same,TGI,SF-295 CNS,> 100 µM
same,TGI,NCI-H460 lung,> 100 µM
same,TGI,A498 renal,> 100 µM
same,TGI,HOP-62 NSCLC,> 100 µM
same,TGI,HCT-116 colon,> 100 µM
same,TGI,UACC-257 melanoma,> 100 µM
same,TGI,SF-268 CNS,> 100 µM
same,TGI,OVCAR-5 ovarian,> 100 µM
same,TGI,UACC-62 melanoma,> 100 µM
same,TGI,786-0 renal,> 100 µM
same,TGI,COLO 205 colon,> 100 µM
same,TGI,SK-MEL-5 melanoma,> 100 µM
same,TGI,OVCAR-8 ovarian,> 100 µM
same,TGI,UO-31 renal,> 100 µM
same,TGI,EKVX NSCLC,> 100 µM
same,TGI,CCRF-CEM leukemia,> 100 µM
same,TGI,T-47D breast,> 100 µM
same,TGI,BT-549 breast,> 100 µM
same,TGI,SF-539 CNS,> 100 µM
same,TGI,NCI/ADR-RES ovarian,> 100 µM
same,TGI,LOX IMVI melanoma,> 100 µM
same,TGI,MALME-3M melanoma,> 100 µM
same,TGI,MCF7 breast,> 100 µM
same,TGI,HL-60(TB) leukemia,> 100 µM
same,TGI,OVCAR-3 ovarian,> 100 µM
same,TGI,MDA-N,> 100 µM
same,TGI,MDA-MB-231 breast,> 100 µM
same,TGI,CAKI-1 renal,> 100 µM
same,TGI,NCI-H522 lung,> 100 µM
same,TGI,SW-620 colon,> 100 µM
same,TGI,NCI-H23 lung,> 100 µM
same,TGI,IGROV1 ovarian,> 100 µM
same,TGI,HT29 colon,> 100 µM
same,TGI,A549 NSCLC,> 100 µM
same,TGI,DU-145 prostate,> 100 µM
same,TGI,SK-MEL-2 melanoma,> 100 µM
same,TGI,K-562 leukemia,> 100 µM
same,TGI,SK-MEL-28 melanoma,> 100 µM
same,TGI,HS 578T breast,> 100 µM
same,TGI,M14 melanoma,> 100 µM
same,TGI,KM12 colon,> 100 µM
same,TGI,SN12C renal,> 100 µM
same,TGI,SK-OV-3 ovarian,> 100 µM
same,TGI,SNB-75 CNS,> 100 µM
same,TGI,RPMI-8226 leukemia,> 100 µM
same,TGI,MOLT-4 leukemia,> 100 µM
same,TGI,ACHN renal,> 100 µM
same,TGI,MDA-MB-435,> 100 µM
same,TGI,HOP-92 NSCLC,> 100 µM
O=C1/C(=C/c2ccccc2)CCC/C1=C\c1ccc(O)c(CN2CCCCC2)c1,TGI,RXF 393 renal,26.7 µM
same,TGI,TK-10 renal,31 µM
same,TGI,OVCAR-4 ovarian,13.8 µM
same,TGI,NCI-H226 lung,16.9 µM
same,TGI,HCT-15 colon,3.74 µM
same,TGI,SR leukemia,6.38 µM
same,TGI,PC-3 prostate,13.8 µM
same,TGI,HCC-2998 colon,5.46 µM
same,TGI,U251 CNS,11 µM
same,TGI,SNB-19 CNS,26 µM
same,TGI,SF-295 CNS,13 µM
same,TGI,NCI-H460 lung,16.5 µM
same,TGI,A498 renal,12.5 µM
same,TGI,HOP-62 NSCLC,32 µM
same,TGI,HCT-116 colon,2.97 µM
same,TGI,UACC-257 melanoma,18.5 µM
same,TGI,SF-268 CNS,17 µM
same,TGI,OVCAR-5 ovarian,37.9 µM
same,TGI,UACC-62 melanoma,10.5 µM
same,TGI,786-0 renal,3.4 µM
same,TGI,COLO 205 colon,15.4 µM
same,TGI,SK-MEL-5 melanoma,9.62 µM
same,TGI,OVCAR-8 ovarian,9.54 µM
same,TGI,UO-31 renal,19.7 µM
same,TGI,EKVX NSCLC,18.1 µM
same,TGI,CCRF-CEM leukemia,> 100 µM
same,TGI,T-47D breast,17.6 µM
same,TGI,BT-549 breast,10.5 µM
same,TGI,SF-539 CNS,8.95 µM
same,TGI,NCI/ADR-RES ovarian,8.44 µM
same,TGI,LOX IMVI melanoma,4.08 µM
same,TGI,MALME-3M melanoma,40.2 µM
same,TGI,MCF7 breast,19.2 µM
same,TGI,HL-60(TB) leukemia,> 100 µM
same,TGI,OVCAR-3 ovarian,22.9 µM
same,TGI,MDA-N,8.11 µM
same,TGI,MDA-MB-231 breast,6.28 µM
same,TGI,CAKI-1 renal,18.8 µM
same,TGI,NCI-H522 lung,7.22 µM
same,TGI,SW-620 colon,5.94 µM
same,TGI,NCI-H23 lung,15.1 µM
same,TGI,IGROV1 ovarian,11.2 µM
same,TGI,HT29 colon,4.04 µM
same,TGI,A549 NSCLC,36.4 µM
same,TGI,DU-145 prostate,7.44 µM
same,TGI,SK-MEL-2 melanoma,29.2 µM
same,TGI,K-562 leukemia,> 100 µM
same,TGI,SK-MEL-28 melanoma,17.5 µM
same,TGI,HS 578T breast,15.1 µM
same,TGI,M14 melanoma,26.1 µM
same,TGI,KM12 colon,4.98 µM
same,TGI,SN12C renal,9.53 µM
same,TGI,SK-OV-3 ovarian,22.2 µM
same,TGI,SNB-75 CNS,17.1 µM
same,TGI,RPMI-8226 leukemia,> 100 µM
same,TGI,MOLT-4 leukemia,8.21 µM
same,TGI,ACHN renal,3.8 µM
same,TGI,MDA-MB-435,7.5 µM
same,TGI,HOP-92 NSCLC,15.4 µM

# From PubChem BioAssay (NCI)
